Test results: the CheMixHub ionic liquid set
± gives the uncertainty stated by the source.

Assay: xn = mol fraction of the nth substance listed

CC1COC(=O)O1 (centres undefined) + COCCn1cc[n+](C)c1.N#C[S-]
101 kPa, x2 = 0
Conditions	viscosity [mPa·s]
288.15 K	3.06 ± 0.61
293.15 K	2.75 ± 0.55
298.15 K	2.47 ± 0.49
303.15 K	2.25 ± 0.45
308.15 K	2.05 ± 0.41
313.15 K	1.88 ± 0.38
318.15 K	1.73 ± 0.35
323.15 K	1.6 ± 0.32
328.15 K	1.49 ± 0.3
333.15 K	1.39 ± 0.28
338.15 K	1.29 ± 0.26
343.15 K	1.21 ± 0.24

O + CCCCCCCCCCCCCCCC[n+]1ccccc1.O=C([O-])C(O)c1ccccc1 + C[C@H](N)C(=O)O
101 kPa, x2 = 0, x3 = 0
Conditions	electrical conductivity [S/m]
293.15 K	0.00012
298.15 K	0.00015
303.15 K	0.00016
308.15 K	0.00017
313.15 K	0.00019

CC(=O)[O-].CCCC[n+]1ccn(C)c1 + NCCCNCCCN + O
viscosity [mPa·s], 101 kPa
Conditions	298.15 K	303.15 K	308.15 K	313.15 K	318.15 K	323.15 K	328.15 K	333.15 K
x1 = 0.03479, x2 = 0	2.23 ± 0.14	2.18 ± 0.14	2.16 ± 0.14	2.13 ± 0.14	1.74 ± 0.14	1.58 ± 0.14	1.51 ± 0.14	1.24 ± 0.14
x1 = 0.03897, x2 = 0	2.35 ± 0.14	2.29 ± 0.14	2.25 ± 0.14	2.22 ± 0.14	2.11 ± 0.14	2.07 ± 0.14	1.91 ± 0.14	1.86 ± 0.14
x1 = 0.04311, x2 = 0	2.66 ± 0.14	2.63 ± 0.14	2.56 ± 0.14	2.49 ± 0.14	2.29 ± 0.14	2.26 ± 0.14	2.02 ± 0.14	1.97 ± 0.14

CCCC[N+]1(C)CCCC1.N#C[N-]C#N + CCCC[N+]1(C)CCCC1.O=S(=O)([N-]S(=O)(=O)C(F)(F)F)C(F)(F)F
101 kPa, frequency 0 MHz, x2 = 0.5
Conditions	electrical conductivity [S/m]
318 K	0.962 ± 0.096
323 K	1.12 ± 0.11

101 kPa, x2 = 0.5
Conditions	viscosity [mPa·s]
318 K	22.7 ± 1.2
323 K	19.7 ± 1

CCCC[n+]1ccn(C)c1.O=C([O-])C(F)(F)F + CC#N
298.15 K, 101 kPa, x2 = 0.2556
Conditions	electrical conductivity [S/m]	viscosity [mPa·s]
–	0.84 ± 0.1	24.6 ± 2.5

CC1COC(=O)O1 (centres undefined) + CC[n+]1ccn(C)c1.O=S(=O)([O-])C(F)(F)F
101 kPa, x2 = 0
Conditions	viscosity [mPa·s]
293.15 K	2.94 ± 0.18
343.15 K	1.251 ± 0.076

CC[n+]1ccn(C)c1.N#C[N-]C#N + CC[n+]1ccn(C)c1.F[B-](F)(F)F
298.1 K, 101 kPa
Conditions	viscosity [mPa·s]
x2 = 0.0448	17.2 ± 2.1
x2 = 0.6254	27.9 ± 4.3
x2 = 0.7856	31.4 ± 5.1
x2 = 0.9447	34.7 ± 6

CCCC[n+]1ccn(C)c1.F[B-](F)(F)F + NCCO + O
viscosity [mPa·s], 101 kPa
Conditions	293.15 K	298.15 K	303.15 K	308.15 K	313.15 K	318.15 K	323.15 K	328.15 K	333.15 K
x1 = 0.0337, x2 = 0.2024	7 ± 2.1	5.5 ± 1.6	4.5 ± 1.4	3.8 ± 1.1	–	–	–	–	–
x1 = 0.0792, x2 = 0.1188	6.1 ± 1.8	4.7 ± 1.4	4 ± 1.2	3.4 ± 1	–	–	–	–	–
x1 = 0.0977, x2 = 0.2442	–	–	7.3 ± 2.2	6 ± 1.8	5.1 ± 1.5	4.3 ± 1.3	3.7 ± 1.1	–	–
x1 = 0.1701, x2 = 0.3402	–	–	–	9 ± 2.7	7.6 ± 2.3	6.5 ± 1.9	5.5 ± 1.6	4.7 ± 1.4	4.1 ± 1.3

CC1CC(=O)O1 (centres undefined) + CCCC[n+]1ccn(C)c1.O=S(=O)([N-]S(=O)(=O)C(F)(F)F)C(F)(F)F
electrical conductivity [S/m], 100 kPa, frequency 0.01 MHz
Conditions	293.15 K	298.15 K	303.15 K	308.15 K	313.15 K	318.15 K	323.15 K
x2 = 0.0493	0.874 ± 0.036	0.942 ± 0.039	1.02 ± 0.042	1.1 ± 0.045	1.2 ± 0.05	1.29 ± 0.053	1.38 ± 0.057
x2 = 0.1001	1.1 ± 0.044	1.22 ± 0.049	1.34 ± 0.054	1.48 ± 0.06	1.62 ± 0.065	1.74 ± 0.07	1.89 ± 0.076
x2 = 0.1526	1.21 ± 0.048	1.34 ± 0.054	1.49 ± 0.06	1.64 ± 0.066	1.8 ± 0.072	1.94 ± 0.078	2.12 ± 0.085
x2 = 0.2001	1.2 ± 0.048	1.32 ± 0.053	1.47 ± 0.059	1.62 ± 0.065	1.79 ± 0.072	1.97 ± 0.079	2.16 ± 0.086
x2 = 0.3001	1.02 ± 0.041	1.15 ± 0.046	1.28 ± 0.051	1.42 ± 0.057	1.58 ± 0.063	1.76 ± 0.071	1.96 ± 0.078
x2 = 0.4013	0.782 ± 0.031	0.883 ± 0.035	1 ± 0.04	1.13 ± 0.045	1.26 ± 0.051	1.43 ± 0.057	1.61 ± 0.065
x2 = 0.5004	0.619 ± 0.025	0.701 ± 0.028	0.804 ± 0.032	0.91 ± 0.037	1.02 ± 0.041	1.16 ± 0.047	1.3 ± 0.052
x2 = 0.5995	0.505 ± 0.02	0.58 ± 0.023	0.67 ± 0.027	0.754 ± 0.03	0.857 ± 0.034	0.976 ± 0.039	1.1 ± 0.044
x2 = 0.6929	0.437 ± 0.018	0.504 ± 0.02	0.584 ± 0.023	0.665 ± 0.027	0.758 ± 0.03	0.865 ± 0.035	0.992 ± 0.04
x2 = 0.814	0.39 ± 0.016	0.451 ± 0.018	0.521 ± 0.021	0.592 ± 0.024	0.677 ± 0.027	0.775 ± 0.031	0.886 ± 0.035
x2 = 0.9001	0.353 ± 0.014	0.417 ± 0.017	0.484 ± 0.019	0.557 ± 0.022	0.645 ± 0.026	0.74 ± 0.03	0.837 ± 0.033

O + CCCCCCCCCCCCCC[n+]1ccccc1.O=C([O-])C(O)c1ccccc1
101 kPa, x2 = 0
Conditions	electrical conductivity [S/m]
293.15 K	0.00012
298.15 K	0.00015
303.15 K	0.00016
308.15 K	0.00017
313.15 K	0.00019

C[C@H](N)C(=O)O + CCCCCCCCCCCCCCCC[n+]1ccccc1.[Cl-] + O
308.15 K, 101 kPa
Conditions	electrical conductivity [S/m]
x1 = 2.018e-05, x2 = 0	0.00076 ± 8e-06
x1 = 2.252e-05, x2 = 0	5.6e-05 ± 1e-06
x1 = 0.0009272, x2 = 0	7.5e-05 ± 1e-06
x1 = 0.001838, x2 = 0	0.000251 ± 3e-06

CCCC[n+]1ccn(C)c1.F[B-](F)(F)F + CNC(C)=O
Conditions	viscosity [mPa·s]
293.15 K, 101 kPa, x1 = 1	127.6 ± 8.5
